Reference: patent publication US12344611B2, “Bridged cycloformylpyridine derivatives and uses thereof” (BroadenBio Co., Ltd., priority 2019, dated 2025)

Assays:
[1] = test system: Hep 3B hepatoma cells; assay: In vitro cell proliferation assay (CellTiter-Glo, CTG), Hep 3B; assay type: cell-based, human; settings: Homo sapiens, Hep3B, 96 h, Hep 3B cells
Method: (§1) In Vitro Cell Proliferation Assay of FGFR4 (CellTiter-Glo Luminescent Cell Viability Assay, CTG Assay)
(§2) Hep 3B hepatoma cells were purchased from Cell Resource Center of Peking Union College, and HuH-7 hepatoma cells were purchased from Shanghai Biological Technology Co., Ltd. enzyme research. The cells were prepared at a concentration of 3×10^4/mL, which was then added with 100 μL to each well of a 96-well transparent flat-bottom black-walled plate to make 3000 cells per well. Incubate overnight at 37° C. in 5% CO2 incubator. Dilute a compound and add it to the wells having the cells, then add cell culture medium to 200 μL per well. Put in CO2 incubator for incubation. After 96 hours, 100 μL of culture medium was removed from each well, 100 μL of CTG was added, and the 96-well plate was placed on a shaker for 10 minutes, and placed in the shade at room temperature for 45 minutes. Data was read out by SoftMax Pro i3X Microplate Reader of MD, analyzed by the software GraphPad Prism 5.0, and S-shaped dose-response curve was drawn, then the EC50 values were calculated.

[2] = target: FGFR4 (Homo sapiens, UniProt P22455); assay: In vitro biochemical kinase analysis of FGFR4 (HTRF KinEASE-TK); settings: HTRF kinase assay
Chain of FGFR4 (P22455 22-802): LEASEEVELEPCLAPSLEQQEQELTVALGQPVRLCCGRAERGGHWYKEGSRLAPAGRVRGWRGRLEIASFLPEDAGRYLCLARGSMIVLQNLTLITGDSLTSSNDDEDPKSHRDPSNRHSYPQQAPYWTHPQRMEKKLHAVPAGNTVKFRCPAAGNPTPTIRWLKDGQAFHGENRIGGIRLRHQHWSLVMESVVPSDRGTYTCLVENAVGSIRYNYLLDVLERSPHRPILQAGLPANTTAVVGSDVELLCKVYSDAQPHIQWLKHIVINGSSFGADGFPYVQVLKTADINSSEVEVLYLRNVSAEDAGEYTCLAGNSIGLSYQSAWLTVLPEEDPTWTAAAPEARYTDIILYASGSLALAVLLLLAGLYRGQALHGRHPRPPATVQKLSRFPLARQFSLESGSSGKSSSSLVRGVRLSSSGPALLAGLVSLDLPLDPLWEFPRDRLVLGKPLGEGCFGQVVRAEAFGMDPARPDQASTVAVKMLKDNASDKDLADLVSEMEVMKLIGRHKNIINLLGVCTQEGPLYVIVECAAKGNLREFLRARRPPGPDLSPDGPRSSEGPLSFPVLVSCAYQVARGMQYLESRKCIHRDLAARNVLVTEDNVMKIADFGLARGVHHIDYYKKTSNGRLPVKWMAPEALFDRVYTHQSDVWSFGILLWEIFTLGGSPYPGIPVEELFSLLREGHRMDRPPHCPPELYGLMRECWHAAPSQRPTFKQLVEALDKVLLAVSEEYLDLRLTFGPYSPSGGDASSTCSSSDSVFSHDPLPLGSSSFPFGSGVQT
Method: In Vitro Biochemical Kinase Analysis of FGFR4
FGFR4 protein kinase detection kit was purchased from Cisbio (HTRF KinEASE-TK kit). Prepare 1× kinase reaction buffer. Transfer 10 nL of a diluted compound to each well of a reaction plate (784075, Greiner) with an Echo 550, and seal the plate with sealing film. The reaction plate was centrifuged at 1000 g for 1 minute. Prepare 2×FGFR4 using 1× kinase reaction buffer, add 5 μL of kinase to each well of the reaction plate, seal the plate, centrifuge at 1000 g for 30 seconds, and incubate it at room temperature for 10 minutes. Prepare a mixture of 2×TK-substrate-biotin and ATP using 1× kinase reaction buffer, add 5 μL of TK-substrate-biotin/ATP mixture to the reaction plate, seal the plate with sealing film, centrifuge at 1000 g for 30 seconds, and react at room temperature for 40 minutes. Prepare 2×Sa-XL 665 and TK-antibody-Cryptate mixture using HTRF detection buffer, add 10 μL Sa-XL 665 and TK-antibody-Cryptate mixture to each well, centrifuge at 1000 g for 30 seconds, and react at room temperature for 1 hour. Envision 2104 read fluorescence signals at 615 nm (Cryptate) and at 665 nm (XL665). IC50 of the compound was calculated using the GraphPad nonlinear fitting formula.

[3] = test system: Hep 3B tumor models; assay: In vivo efficacy test, Hep3B subcutaneous xenograft in nude mice; set-up: species or system Nu/Nu nude mice; settings: for tumor inhibition rate: gavage, twice a day, Hep3B xenograft, day 16
Method: Human hepatoma Hep3B cells and cell culture medium (EMEM) were purchased from ATCC. Antibiotics (penicillin, streptomycin) and Tryspin-EDTA were purchased from Gibco. Phosphate buffered saline (PBS) and fetal bovine serum (FBS) were purchased from Hyclone. Matrigel was purchased from Corning. Nu/Nu nude mice 6-8 weeks, female, purchased from Vitalriver.
Human hepatoma Hep3B cells were cultured in monolayer in vitro, and cultured in EMEM with 10% fetal bovine serum, 100 U/mL penicillin and 100 μg/mL streptomycin, 37° C., 5% CO2. Trypsin-EDTA was used twice a week for routine digestion and passage. When cell saturation reached 80%-90%, cells were harvested, counted, and seeded. 0.2 mL of 10×10^6 Hep3B cells were subcutaneously seeded on the right back of each nude mouse (PBS:Matrigel=1:1). Administration was started when the average tumor volume reached 128 mm^3.
The mice were administered by gavage, twice a day. Control group was given pure water. Three treatment groups were administered Compound 4, at the doses of 10 mg/kg, 30 mg/kg, and 60 mg/kg, respectively. Tumors were measured and weighed twice a week. By day 16, the average tumor volume in the control group had reached the humanitarian endpoint (2000 mm^3), and the experiment was terminated.
The data was processed by software such as Excel. […] The tumor inhibition effect was obvious in Hep 3B tumor models.

[4] = test system: HuH-7 hepatoma cells; assay: In vitro cell proliferation assay (CellTiter-Glo, CTG), HuH-7; assay type: cell-based; settings: Homo sapiens, Huh-7, 96 h, HuH-7 cells
Method: as §1, §2

Row | SMILES | EC50 [1] [nM] | IC50 [2] [nM] | tumor inhibition rate ([3]; 30 mg/kg) [%] | tumor inhibition rate ([3]; 60 mg/kg) [%] | tumor inhibition effect ([3]; Hep 3B tumor models, in words) | EC50 [4] [nM]
1 | COCCNc1cc(NC(=O)N2c3nc(C=O)c(CN4CCN(C)CC4=O)cc3C3(F)CC2C3)ncc1C#N [Compound 4, N-(5-cyano-4-((2-methoxyethyl)amino)pyridin-2-yl)-4-fluoro-7-formyl-6-((4-methyl-2-oxopiperazin-1-yl)methyl)-3,4-dihydro-2,4-methylene-1,8-naphthyridine-1(2H)-carboxamide] | 6.4 | 0.7 | 78 | 97 | obvious | 12
2 | COCCNc1cc(NC(=O)N2c3nc(C=O)ccc3C3(NC(=O)C4CCN(C)C4)CC2C3)ncc1C#N (stereo not drawn) [Compound 40] | 24.9 | 3.4 |  |  |  | 39.6
3 | COCCNc1cc(NC(=O)N2c3nc(C=O)ccc3C3(NC(=O)CN4CCCC4)CC2C3)ncc1C#N [Compound 41] | 11.9 | 3.4 |  |  |  | 13.3
